{"source": "ChEMBL document CHEMBL1201862", "about": "“PubChem BioAssay data set” (2004)", "key": {"[1]": {"test": "HIV-1 Vif–A3G interaction blockers – biochemical, TR-FRET, GST-Vif 1-94, biotin-A3G peptide, dose response retest, primary screen (AID 1117319);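 further: TR-FRET signal of purified GST-Vif binding a biotinylated A3G peptide; inhibitors lower the FRET signal by blocking Vif and A3G binding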", "format": "functional"}, "CAAX prenyl protease 1": {"target": "CAAX prenyl protease 1 (Saccharomyces cerevisiae S288c, UniProt P47154)", "sequence (P47154 whole entry)": "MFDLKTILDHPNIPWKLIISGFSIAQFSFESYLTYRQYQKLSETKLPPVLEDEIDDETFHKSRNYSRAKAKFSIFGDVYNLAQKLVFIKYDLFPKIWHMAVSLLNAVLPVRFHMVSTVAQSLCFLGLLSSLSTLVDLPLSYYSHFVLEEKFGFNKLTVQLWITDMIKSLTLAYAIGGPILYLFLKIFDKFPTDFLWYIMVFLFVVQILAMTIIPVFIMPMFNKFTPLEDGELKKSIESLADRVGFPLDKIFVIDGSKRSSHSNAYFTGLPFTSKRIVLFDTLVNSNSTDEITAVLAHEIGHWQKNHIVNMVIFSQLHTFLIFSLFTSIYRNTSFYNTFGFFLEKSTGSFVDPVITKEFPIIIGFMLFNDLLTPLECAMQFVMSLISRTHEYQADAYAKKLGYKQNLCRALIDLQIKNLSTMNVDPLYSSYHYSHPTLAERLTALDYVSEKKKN", "test": "yeast CAAX protease Ste24 inhibition – biochemical, S. cerevisiae, plate reader, cherry-pick, dose response (AID 488815)"}, "CAAX prenyl protease 2 [2]": {"target": "T1, CAAX prenyl protease 2 (Homo sapiens, UniProt Q9Y256)", "T1 sequence (Q9Y256 whole entry)": "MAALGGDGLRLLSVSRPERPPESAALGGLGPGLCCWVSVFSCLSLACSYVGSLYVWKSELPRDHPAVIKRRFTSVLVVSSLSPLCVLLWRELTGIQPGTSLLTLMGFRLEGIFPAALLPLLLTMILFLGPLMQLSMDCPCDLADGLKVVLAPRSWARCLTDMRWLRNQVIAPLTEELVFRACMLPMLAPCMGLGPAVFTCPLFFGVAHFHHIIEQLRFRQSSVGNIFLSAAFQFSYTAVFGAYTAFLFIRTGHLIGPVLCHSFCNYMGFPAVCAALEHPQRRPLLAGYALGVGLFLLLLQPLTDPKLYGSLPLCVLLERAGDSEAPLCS", "test": "inhibition of Ras-converting CAAX protease Rce1 – biochemical, yeast membranes, quenched-peptide fluorescence, cherry-pick, dose response (AID 588849)"}, "Trypsin": {"target": "Trypsin (Sus scrofa, UniProt P00761)", "sequence (P00761 whole entry)": "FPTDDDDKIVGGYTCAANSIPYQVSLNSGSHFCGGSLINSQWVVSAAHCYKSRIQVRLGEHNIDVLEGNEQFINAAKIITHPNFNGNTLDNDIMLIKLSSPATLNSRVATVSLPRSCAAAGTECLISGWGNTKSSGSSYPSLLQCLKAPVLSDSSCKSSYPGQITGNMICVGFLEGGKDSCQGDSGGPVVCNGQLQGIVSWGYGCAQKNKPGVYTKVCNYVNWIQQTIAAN", "test": "trypsin protease activity blockade – biochemical, quenched peptide fluorescence, cherry-pick, selectivity assay for Rce1 protease inhibitor project, dose response (AID 488789)"}, "CAAX prenyl protease 2 [3]": {"target": "CAAX prenyl protease 2 (Saccharomyces cerevisiae S288c, UniProt Q03530)", "sequence (Q03530 whole entry)": "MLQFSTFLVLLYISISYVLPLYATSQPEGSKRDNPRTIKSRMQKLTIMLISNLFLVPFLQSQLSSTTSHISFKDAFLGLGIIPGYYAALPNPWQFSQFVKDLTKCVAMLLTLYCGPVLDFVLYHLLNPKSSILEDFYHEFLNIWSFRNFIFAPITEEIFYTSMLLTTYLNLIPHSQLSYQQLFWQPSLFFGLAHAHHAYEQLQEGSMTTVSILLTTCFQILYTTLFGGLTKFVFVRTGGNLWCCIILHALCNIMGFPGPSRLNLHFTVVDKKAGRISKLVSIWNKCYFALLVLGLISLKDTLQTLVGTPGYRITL", "format": "biochemical"}, "Prothrombin": {"target": "Prothrombin (Bos taurus, UniProt P00735)", "test": "thrombin protease inhibitors – biochemical, fluorescence polarization, uHTS hits, dose response (AID 602369)", "format": "functional"}, "[4]": {"test": "antiviral protection against BTV-induced cell death – arbovirus, BSR cells, confirmation (AID 1250);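 further: protection from viral cytopathic effect measured as cell viability by ATP luminescence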", "format": "functional"}, "[5]": {"test": "protection from phage-mediated lysis, alamar blue read-out – E. coli UTI89, K1F phage, bacterial capsule biogenesis inhibitors (AID 488966)", "format": "functional"}, "[6]": {"target": "Induced myeloid leukemia cell differentiation protein Mcl-1 (Homo sapiens, UniProt Q07820)", "sequence (Q07820 whole entry)": "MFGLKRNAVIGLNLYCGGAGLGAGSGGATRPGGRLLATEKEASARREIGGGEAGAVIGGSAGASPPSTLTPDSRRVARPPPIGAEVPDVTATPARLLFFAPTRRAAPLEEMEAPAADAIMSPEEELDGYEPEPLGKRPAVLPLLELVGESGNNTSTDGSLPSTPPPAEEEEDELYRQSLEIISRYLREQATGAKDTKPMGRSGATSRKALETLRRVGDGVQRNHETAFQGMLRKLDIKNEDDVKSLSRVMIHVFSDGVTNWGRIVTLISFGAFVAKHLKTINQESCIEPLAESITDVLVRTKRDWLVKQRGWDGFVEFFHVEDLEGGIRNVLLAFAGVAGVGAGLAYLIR", "format": "functional"}, "[7]": {"target": "72 kDa type IV collagenase (Homo sapiens, UniProt P08253)", "test": "Dose Response validation of uHTS RPN11 inhibitor hits using a MMP-2 Fluorescence assay.", "format": "functional"}, "[8]": {"target": "26S proteasome non-ATPase regulatory subunit 14 (Homo sapiens, UniProt O00487)", "test": "inhibition of proteasome subunit RPN11 – biochemical, fluorescence polarization, uHTS hits, confirmation (AID 602368)", "format": "functional"}, "Estrogen receptor beta [9]": {"target": "T2, Estrogen receptor beta (Homo sapiens, UniProt Q92731)", "T2 sequence (Q92731 whole entry)": "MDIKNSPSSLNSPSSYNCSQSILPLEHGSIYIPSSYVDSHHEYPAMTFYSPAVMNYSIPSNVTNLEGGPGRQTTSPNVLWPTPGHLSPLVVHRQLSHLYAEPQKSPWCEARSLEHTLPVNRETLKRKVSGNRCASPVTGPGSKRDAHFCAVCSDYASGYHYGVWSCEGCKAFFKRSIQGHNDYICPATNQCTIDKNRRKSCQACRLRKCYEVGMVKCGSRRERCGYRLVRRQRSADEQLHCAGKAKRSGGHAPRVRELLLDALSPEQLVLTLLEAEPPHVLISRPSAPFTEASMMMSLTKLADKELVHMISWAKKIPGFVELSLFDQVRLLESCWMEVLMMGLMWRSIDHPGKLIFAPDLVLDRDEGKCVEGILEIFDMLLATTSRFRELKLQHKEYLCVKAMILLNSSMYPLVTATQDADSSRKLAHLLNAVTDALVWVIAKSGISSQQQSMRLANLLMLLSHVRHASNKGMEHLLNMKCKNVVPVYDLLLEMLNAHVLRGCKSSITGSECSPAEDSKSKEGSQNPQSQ"}, "Large T antigen": {"target": "Large T antigen (Simian virus 40, UniProt P03070)", "format": "functional, Betapolyomavirus macacae"}, "Estrogen receptor beta [10]": {"target": "T2, Estrogen receptor beta", "test": "blockers of SRC-3 recruitment to ERβ – biochemical, ELISA, streptavidin-HRP readout, orthogonal assay, confirmation (AID 1060)"}, "Protein skinhead-1": {"target": "T3, Protein skinhead-1 (Caenorhabditis elegans, UniProt P34707)", "T3 sequence (P34707 whole entry)": "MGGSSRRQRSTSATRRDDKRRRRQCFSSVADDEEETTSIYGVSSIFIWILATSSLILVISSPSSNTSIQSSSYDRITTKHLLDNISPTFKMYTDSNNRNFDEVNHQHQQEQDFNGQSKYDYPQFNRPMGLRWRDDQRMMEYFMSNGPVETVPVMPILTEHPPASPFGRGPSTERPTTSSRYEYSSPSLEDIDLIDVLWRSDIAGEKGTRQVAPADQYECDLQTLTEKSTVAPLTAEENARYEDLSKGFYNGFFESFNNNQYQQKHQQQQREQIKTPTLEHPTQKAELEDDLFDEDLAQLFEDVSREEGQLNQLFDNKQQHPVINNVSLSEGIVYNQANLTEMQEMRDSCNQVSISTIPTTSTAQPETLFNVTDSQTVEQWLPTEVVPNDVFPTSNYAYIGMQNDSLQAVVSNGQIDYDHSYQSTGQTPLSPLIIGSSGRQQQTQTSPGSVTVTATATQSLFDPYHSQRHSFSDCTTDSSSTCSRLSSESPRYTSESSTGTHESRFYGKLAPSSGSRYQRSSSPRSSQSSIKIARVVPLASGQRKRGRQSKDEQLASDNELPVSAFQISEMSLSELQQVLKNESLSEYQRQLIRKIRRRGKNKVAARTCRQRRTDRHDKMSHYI", "format": "functional"}, "Protein Tat": {"target": "Protein Tat (Human immunodeficiency virus type 1 group M subtype B (isolate HXB2)(HIV-1), UniProt P04608)", "format": "functional"}, "Caspase-7": {"target": "Caspase-7 (Homo sapiens, UniProt P55210)", "test": "activation of caspase-7 zymogen – biochemical, absorbance, counter-screen for procaspase-3 activator project, dose response (AID 489013)"}, "Caspase-3": {"target": "T4, Caspase-3 (Homo sapiens, UniProt P42574)", "T4 sequence (P42574 whole entry)": "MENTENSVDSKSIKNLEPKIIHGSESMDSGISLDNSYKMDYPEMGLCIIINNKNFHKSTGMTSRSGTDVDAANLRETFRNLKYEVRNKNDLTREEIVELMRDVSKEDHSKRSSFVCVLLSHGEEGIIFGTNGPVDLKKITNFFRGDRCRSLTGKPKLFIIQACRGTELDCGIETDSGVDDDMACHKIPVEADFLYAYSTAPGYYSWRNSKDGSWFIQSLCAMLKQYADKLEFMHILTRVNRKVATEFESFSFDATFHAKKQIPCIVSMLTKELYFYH", "test": "activation of caspase-3 zymogen – biochemical, absorbance, dose response (AID 489014)"}, "[11]": {"target": "T5, Voltage-gated N-type calcium channel alpha-1B subunit/Amyloid beta A4 precursor protein-binding family A member 1 (Homo sapiens, UniProt Q00975+Q02410)", "T5 sequence (Q00975 whole entry)": "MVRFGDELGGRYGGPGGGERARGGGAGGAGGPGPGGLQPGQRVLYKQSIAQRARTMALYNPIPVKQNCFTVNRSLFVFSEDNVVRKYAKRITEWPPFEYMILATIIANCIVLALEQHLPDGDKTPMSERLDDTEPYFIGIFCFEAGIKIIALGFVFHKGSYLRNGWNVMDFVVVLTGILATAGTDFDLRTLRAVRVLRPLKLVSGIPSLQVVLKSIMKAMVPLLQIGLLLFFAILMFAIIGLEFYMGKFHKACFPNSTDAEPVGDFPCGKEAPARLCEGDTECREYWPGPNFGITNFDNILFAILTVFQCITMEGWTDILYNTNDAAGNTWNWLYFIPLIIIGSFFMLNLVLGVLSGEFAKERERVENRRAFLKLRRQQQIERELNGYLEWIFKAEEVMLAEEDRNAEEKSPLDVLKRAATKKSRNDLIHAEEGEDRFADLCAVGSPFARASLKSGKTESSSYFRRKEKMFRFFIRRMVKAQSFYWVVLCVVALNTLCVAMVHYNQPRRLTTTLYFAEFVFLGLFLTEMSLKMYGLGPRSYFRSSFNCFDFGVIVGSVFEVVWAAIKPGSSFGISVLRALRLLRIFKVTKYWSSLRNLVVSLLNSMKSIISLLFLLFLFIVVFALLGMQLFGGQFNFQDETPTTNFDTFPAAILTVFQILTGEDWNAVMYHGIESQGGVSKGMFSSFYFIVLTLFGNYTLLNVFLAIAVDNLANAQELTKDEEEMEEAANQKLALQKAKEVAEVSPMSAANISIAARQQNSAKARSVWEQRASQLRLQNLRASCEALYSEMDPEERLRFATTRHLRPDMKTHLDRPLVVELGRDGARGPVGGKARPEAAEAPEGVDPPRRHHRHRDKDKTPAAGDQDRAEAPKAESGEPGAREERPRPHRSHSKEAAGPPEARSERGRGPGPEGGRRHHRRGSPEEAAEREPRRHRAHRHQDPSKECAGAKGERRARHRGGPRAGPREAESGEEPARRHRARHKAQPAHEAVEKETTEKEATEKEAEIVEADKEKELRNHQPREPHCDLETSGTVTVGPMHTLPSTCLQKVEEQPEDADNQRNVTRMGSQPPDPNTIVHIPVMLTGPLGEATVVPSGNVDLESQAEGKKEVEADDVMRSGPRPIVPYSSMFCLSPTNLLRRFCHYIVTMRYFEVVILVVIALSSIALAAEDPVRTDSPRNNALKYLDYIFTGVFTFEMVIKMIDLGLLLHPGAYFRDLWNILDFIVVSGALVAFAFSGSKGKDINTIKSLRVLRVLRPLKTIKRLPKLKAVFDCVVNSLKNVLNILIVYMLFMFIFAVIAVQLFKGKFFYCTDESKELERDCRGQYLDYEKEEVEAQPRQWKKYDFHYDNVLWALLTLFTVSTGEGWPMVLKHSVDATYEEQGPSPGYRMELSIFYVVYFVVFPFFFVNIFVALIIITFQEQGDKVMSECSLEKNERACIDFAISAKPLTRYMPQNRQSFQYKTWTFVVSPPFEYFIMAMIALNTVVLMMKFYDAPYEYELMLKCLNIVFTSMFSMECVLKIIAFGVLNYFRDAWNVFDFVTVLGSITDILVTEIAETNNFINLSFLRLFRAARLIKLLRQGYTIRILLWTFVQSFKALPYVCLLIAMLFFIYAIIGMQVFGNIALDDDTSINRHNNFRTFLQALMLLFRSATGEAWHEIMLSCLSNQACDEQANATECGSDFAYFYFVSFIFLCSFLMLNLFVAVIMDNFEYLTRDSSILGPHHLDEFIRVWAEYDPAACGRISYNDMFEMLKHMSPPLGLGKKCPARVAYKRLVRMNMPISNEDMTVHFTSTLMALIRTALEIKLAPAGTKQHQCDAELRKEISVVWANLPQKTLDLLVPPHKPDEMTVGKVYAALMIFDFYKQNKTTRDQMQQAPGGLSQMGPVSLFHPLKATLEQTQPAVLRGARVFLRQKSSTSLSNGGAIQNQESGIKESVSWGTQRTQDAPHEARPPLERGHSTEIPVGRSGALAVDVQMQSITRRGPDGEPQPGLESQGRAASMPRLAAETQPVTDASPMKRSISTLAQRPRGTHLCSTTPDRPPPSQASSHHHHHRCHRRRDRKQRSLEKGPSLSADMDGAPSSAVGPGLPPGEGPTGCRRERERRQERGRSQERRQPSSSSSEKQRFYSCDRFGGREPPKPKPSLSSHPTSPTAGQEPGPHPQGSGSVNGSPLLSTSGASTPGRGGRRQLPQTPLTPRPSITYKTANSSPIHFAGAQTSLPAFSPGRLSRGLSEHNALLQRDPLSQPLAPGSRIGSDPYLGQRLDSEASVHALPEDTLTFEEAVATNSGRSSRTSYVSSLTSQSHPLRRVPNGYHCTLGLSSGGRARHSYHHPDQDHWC", "T5 sequence (Q02410 whole entry)": "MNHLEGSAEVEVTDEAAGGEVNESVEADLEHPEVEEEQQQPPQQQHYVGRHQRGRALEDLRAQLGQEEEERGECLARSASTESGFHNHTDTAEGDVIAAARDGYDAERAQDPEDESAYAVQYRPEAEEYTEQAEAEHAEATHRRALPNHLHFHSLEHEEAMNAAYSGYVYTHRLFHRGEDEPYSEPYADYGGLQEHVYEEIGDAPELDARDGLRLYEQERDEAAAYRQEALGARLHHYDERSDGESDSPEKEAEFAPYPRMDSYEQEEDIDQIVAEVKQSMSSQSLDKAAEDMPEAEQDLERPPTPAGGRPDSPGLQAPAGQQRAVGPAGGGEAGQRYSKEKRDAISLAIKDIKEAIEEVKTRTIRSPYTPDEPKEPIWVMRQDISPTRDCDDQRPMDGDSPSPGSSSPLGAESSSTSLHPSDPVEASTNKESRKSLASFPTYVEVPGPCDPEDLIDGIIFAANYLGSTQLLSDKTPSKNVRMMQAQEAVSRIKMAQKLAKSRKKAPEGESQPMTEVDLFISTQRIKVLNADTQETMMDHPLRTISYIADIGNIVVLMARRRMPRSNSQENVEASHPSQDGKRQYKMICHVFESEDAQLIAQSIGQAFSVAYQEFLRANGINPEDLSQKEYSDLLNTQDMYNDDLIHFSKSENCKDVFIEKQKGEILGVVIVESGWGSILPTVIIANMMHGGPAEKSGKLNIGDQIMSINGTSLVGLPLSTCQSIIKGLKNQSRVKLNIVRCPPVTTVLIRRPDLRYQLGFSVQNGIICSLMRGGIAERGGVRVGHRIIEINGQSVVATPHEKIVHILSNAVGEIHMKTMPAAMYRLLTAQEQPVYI", "format": "protein assay"}, "[12]": {"target": "T5, Voltage-gated N-type calcium channel alpha-1B subunit/Amyloid beta A4 precursor protein-binding family A member 1", "format": "protein assay", "remark": "listed apart in the source"}, "Coagulation factor XII": {"target": "T6, Coagulation factor XII (Homo sapiens, UniProt P00748)", "T6 sequence (P00748 whole entry)": "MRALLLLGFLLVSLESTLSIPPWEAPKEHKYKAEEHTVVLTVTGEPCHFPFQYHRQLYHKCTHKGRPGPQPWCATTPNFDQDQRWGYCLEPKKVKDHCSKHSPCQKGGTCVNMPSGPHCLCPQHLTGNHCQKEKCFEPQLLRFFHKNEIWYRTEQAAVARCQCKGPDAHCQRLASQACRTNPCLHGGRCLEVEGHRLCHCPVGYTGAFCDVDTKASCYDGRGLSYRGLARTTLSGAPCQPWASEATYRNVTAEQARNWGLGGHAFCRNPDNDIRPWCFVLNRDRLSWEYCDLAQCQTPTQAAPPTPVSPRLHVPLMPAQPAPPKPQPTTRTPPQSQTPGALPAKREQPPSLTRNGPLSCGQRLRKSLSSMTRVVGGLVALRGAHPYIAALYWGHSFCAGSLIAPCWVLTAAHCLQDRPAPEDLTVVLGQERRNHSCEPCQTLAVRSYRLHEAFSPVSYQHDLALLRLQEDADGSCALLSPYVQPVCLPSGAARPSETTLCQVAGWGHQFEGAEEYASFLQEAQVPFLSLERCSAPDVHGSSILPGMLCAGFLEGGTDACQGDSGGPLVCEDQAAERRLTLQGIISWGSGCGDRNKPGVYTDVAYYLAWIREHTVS", "test": "activated coagulation factor XII inhibitor potency, concentration-effect curve, cell-free (AID 716)", "format": "functional"}}, "note": "Calls of active or inactive are those of the source.", "data": [{"smiles": "CC(=O)Nc1ccc(S(=O)(=O)Nc2cccc(-c3nc4ccccc4o3)c2)cc1", "values": [{"measurement": "IC50", "setting": "[1]", "result": "> 100 µM (active)"}, {"measurement": "AC50", "setting": "CAAX prenyl protease 1", "result": "7.83 µM (active)"}, {"measurement": "AC50", "setting": "CAAX prenyl protease 2 [2]", "result": "7.75 µM (active)"}, {"measurement": "AC50", "setting": "Trypsin", "result": "5.89 µM (active)"}, {"measurement": "AC50", "setting": "CAAX prenyl protease 2 [3]", "result": "14.4 µM (active)"}]}, {"smiles": "CCCC1=NN2C(=N)/C(=C\\c3ccc(SCc4ccco4)o3)C(=O)N=C2S1", "values": [{"measurement": "IC50", "setting": "Prothrombin", "result": "22.8 µM (active)"}, {"measurement": "IC50", "setting": "[4]", "result": "59.4 µM (active)"}, {"measurement": "IC50", "setting": "[5]", "result": "> 75 µM (active)"}, {"measurement": "IC50", "setting": "[6]", "result": "3.18 µM (active)"}, {"measurement": "IC50", "setting": "[7]", "result": "6.34 µM (active)"}, {"measurement": "IC50", "setting": "[8]", "result": "13.7 µM (active)"}, {"measurement": "IC50", "setting": "Estrogen receptor beta [9]", "result": "2.65 µM (active)"}, {"measurement": "IC50", "setting": "Large T antigen", "result": "29.3 µM (active)"}, {"measurement": "IC50", "setting": "Estrogen receptor beta [10]", "result": "> 50 µM (not active)"}, {"measurement": "IC50", "setting": "Protein skinhead-1", "result": "> 100 µM (inactive)"}, {"measurement": "IC50", "setting": "Protein Tat", "result": "1.98 µM (inconclusive)"}]}, {"smiles": "Cc1cc2nn(-c3cccc4ccccc34)nc2cc1N", "values": [{"measurement": "EC50", "setting": "Caspase-7", "result": "> 85.2 µM (inactive)"}, {"measurement": "EC50", "setting": "Caspase-3", "result": "> 85.2 µM (inactive)"}, {"measurement": "IC50", "setting": "[11]", "result": "8.23 µM (active)"}, {"measurement": "IC50", "setting": "[12]", "result": "46.7 µM (active)"}]}, {"smiles": "COc1cc(NC(=O)COc2cccc(OC)c2)cc(OC)c1", "values": [{"measurement": "IC50", "setting": "Coagulation factor XII", "result": "> 50 µM (inactive)"}]}]}
